{"source": "patent US20220288057A1", "about": "“CONJOINT THERAPY FOR TREATING SEIZURE DISORDERS” (XENON PHARMACEUTICALS INC., priority 2021, published 2022)", "assay": "Terminal plasma and brain concentrations in AC-MES studies (UHPLC-MS/MS)", "type": "in vivo, mouse", "details": "CF-1, mouse, in vivo; for Kp at 2 h: read-out: B/P Ratio", "description": "Sample Collection and Preparation: Mice were anesthetized by isoflurane inhalation (according to SOP TECH-018) until they reached a surgical plane of anesthesia. Then a syringe (1 mL syringe with a 22 gauge needle) was inserted under the sternum into the heart (according to SOP TECH-031). Approximately 0.5 mL of blood was collected, deposited into a K2EDTA tube, and stored on ice. Animals were then euthanized by cervical dislocation. Brains were removed, placed into a pre-weighed vial, and snap frozen on dry ice. At the end of the sample collection, blood was centrifuged at 4000 rpm for 10 minutes at 4° C., and the plasma pipetted into a labeled tube. All samples were stored in a −80° C. freezer until the time of bioanalysis.\nPlasma Samples: Extraction of plasma samples was carried out by protein precipitation using acetonitrile. Diluted plasma samples (50 μL) were mixed with 50 μL of internal standard (IS) solution in 1:1 acetonitrile:water (v:v) followed by addition of 200 μL of acetonitrile. Samples were vortexed for 30 seconds, centrifuged at 13,000 rpm for 20 minutes, decanted into a 96-well plate and further centrifuged at 4000 rpm for 20 minutes. The samples were analyzed by ultra-high performance liquid chromatography electrospray ionization tandem mass spectrometry (UHPLC-ESI-MS/MS) as described in the bioanalysis procedure below.\nBrain Samples: Prior to extraction, pre-weighed whole brains were homogenized in 1:1 acetonitrile:water (v:v) (2 mL per mouse brain) using an IKA T18 Ultra-Turrax Homogenizer at the setting of 4 for approximately 1 minute. The homogenate was centrifuged at 13,000 rpm for 20 minutes and 50 μL of the supernatant were treated exactly as described in above for plasma samples.\nBioanalysis Procedures: All samples, including plasma and brain homogenate extracts (including calibration standards and quality control (QC) samples prepared in K2EDTA mouse plasma), were extracted by protein precipitation. To each 50 μL aliquot of sample, 50 μL of IS solution (2500 ng/mL of Lacosamide in water:acetonitrile (1:1)) and 50 μL of 6% (v:v) phosphoric acid in water were added, then 200 μL acetonitrile was added. The samples in 1.7 mL tubes were vortex-mixed then centrifuged for 20 minutes at 13,000 rpm. Fifty microliters of the supernatant was mixed with 150 μL of water:acetonitrile (1:1) in a 96 well plate, which was centrifuged post-mixing for 20 minutes at 4000 rpm. The samples were then ready for UHPLC-MS/MS analysis.\nSamples were analyzed for Compound A by a research-grade UHPLC-MS/MS method using the conditions listed below.\nSamples were analyzed for Lacosamide by a research-grade UHPLC-MS/MS method using the conditions listed below.\nAt least three QC samples, one at each concentration, had to show back-calculated values within ±20% of their nominal concentrations for the whole sample batch to be valid.\nThe Blinding and Randomization, Clinical Observations, AC-MES Assay, Sample Collection and Preparation, Plasma and Brain Samples Analysis, and Bioanalysis Procedures in Example 4 were identical to those used in Example 2.\nSample concentration determination and Data Processing and Analysis in Example 4 was identical to Example 2.", "note": "Where two headings read alike, the source gives them in different places.", "data": [{"smiles": "COC[C@@H](NC(C)=O)C(=O)NCc1ccccc1", "note": "[Lacosamide, reference compound]", "values": [{"measurement": "Kp at 2 h", "setting": "6 mg/kg, Study 2A, Lacosamide 6 mg/kg PO, 2 h", "result": 0.54}, {"measurement": "concentration at 2 h", "setting": "6 mg/kg, Study 2A, Lacosamide 6 mg/kg PO, 2 h, read-out: Mean Brain", "result": 4.85, "unit": "µM"}, {"measurement": "concentration at 2 h", "setting": "6 mg/kg, Study 2A, Lacosamide 6 mg/kg PO, 2 h, read-out: Mean Plasma", "result": 9.07, "unit": "µM"}, {"measurement": "Kp at 2 h", "setting": "6 mg/kg, Study 2D, Lacosamide 6 mg/kg PO, 2 h", "result": 1.15}, {"measurement": "concentration at 2 h", "setting": "6 mg/kg, Study 2D, Lacosamide 6 mg/kg PO, 2 h, read-out: Mean Brain", "result": 7.95, "unit": "µM"}, {"measurement": "concentration at 2 h", "setting": "6 mg/kg, Study 2D, Lacosamide 6 mg/kg PO, 2 h, read-out: Mean Plasma", "result": 6.9, "unit": "µM"}, {"measurement": "Kp at 2 h", "setting": "8 mg/kg, Study 2A, Lacosamide 8 mg/kg PO, 2 h", "result": 0.58}, {"measurement": "concentration at 2 h", "setting": "8 mg/kg, Study 2A, Lacosamide 8 mg/kg PO, 2 h, read-out: Mean Brain", "result": 6.27, "unit": "µM"}, {"measurement": "concentration at 2 h", "setting": "8 mg/kg, Study 2A, Lacosamide 8 mg/kg PO, 2 h, read-out: Mean Plasma", "result": 10.8, "unit": "µM"}, {"measurement": "Kp at 2 h", "setting": "10 mg/kg, Study 2B, Lacosamide 10 mg/kg PO, 2 h", "result": 0.21}, {"measurement": "concentration at 2 h", "setting": "10 mg/kg, Study 2B, Lacosamide 10 mg/kg PO, 2 h, read-out: Mean Brain", "result": 2.63, "unit": "µM"}, {"measurement": "concentration at 2 h", "setting": "10 mg/kg, Study 2B, Lacosamide 10 mg/kg PO, 2 h, read-out: Mean Plasma", "result": 12.6, "unit": "µM"}, {"measurement": "Kp at 2 h", "setting": "10 mg/kg, Study 2C, Lacosamide 10 mg/kg PO, 2 h, alone", "result": 0.28}, {"measurement": "concentration at 2 h", "setting": "10 mg/kg, Study 2C, Lacosamide 10 mg/kg PO, 2 h, alone, read-out: Mean Brain", "result": 4.84, "unit": "µM"}, {"measurement": "concentration at 2 h", "setting": "10 mg/kg, Study 2C, Lacosamide 10 mg/kg PO, 2 h, alone, read-out: Mean Plasma", "result": 17.1, "unit": "µM"}, {"measurement": "Kp at 2 h", "setting": "20 mg/kg, Study 2D, Lacosamide 20 mg/kg PO, 2 h", "result": 1.12}, {"measurement": "concentration at 2 h", "setting": "20 mg/kg, Study 2D, Lacosamide 20 mg/kg PO, 2 h, read-out: Mean Brain", "result": 26.8, "unit": "µM"}, {"measurement": "concentration at 2 h", "setting": "20 mg/kg, Study 2D, Lacosamide 20 mg/kg PO, 2 h, read-out: Mean Plasma", "result": 23.9, "unit": "µM"}, {"measurement": "Kp at 2 h", "setting": "Study 2C, analyte Lacosamide, 10 mg/kg PO 2 h + Compound A 3 mg/kg PO 0.5 h", "result": 0.29}, {"measurement": "concentration at 2 h", "setting": "Study 2C, analyte Lacosamide, 10 mg/kg PO 2 h + Compound A 3 mg/kg PO 0.5 h, read-out: Mean Brain", "result": 4.52, "unit": "µM"}, {"measurement": "concentration at 2 h", "setting": "Study 2C, analyte Lacosamide, 10 mg/kg PO 2 h + Compound A 3 mg/kg PO 0.5 h, read-out: Mean Plasma", "result": 15.5, "unit": "µM"}]}]}
